From patent US20250002463A1, “NEW SALT FORMS OF AMILORIDE AND ITS DERIVATIVES FOR PHARMACEUTICAL USE” (PSOMRI Holding AB, priority 2021, published 2025)
Values joined by “and” are separate entries in the source; they are usually repeats but may differ in a detail not shown here. Identical values can stand only once.

Legend:
[1] = Physical stability under Accelerated Aging Conditions (AAC, 40° C./75% RH, 2 days), HT-XRPD
[2] = Aqueous solubility of salts, Example 1 (aliquot addition; HPLC after 24 h at RT; pH of solutions/mother liquors); conditions: Example 1; RT; aliquot addition (ranges) or HPLC after 24 h, not in Table 3
Method: The aqueous solubility of the salts was estimated qualitatively by the solvent aliquot addition method. Aliquots of water up to 500-600 μL were added to approximately 5 mg of salt. The solubility of the free base was also estimated.
The suspensions were let equilibrating at room temperature for 24 h. Afterwards, solids were separated from the liquid phases. The liquid phases were filtered and analyzed by HPLC to determine the solubility. The pH of solutions/mother liquors was also measured.
Suspensions of the two salts were prepared in water with a concentration of 9-10 mg/mL. The mixtures were let equilibrating at RT for 24 h. Afterwards, solids were separated from the liquid phases. The liquid phases were filtered and analyzed by HPLC to determine the solubility. The pH of mother liquors was also measured.

[3] = Polymorphic landscape by thermocycling of amorphous salt in 15 solvents; format: physicochemical; conditions: for polymorphs found: Example 3, thermocycling from amorphous salt, 15 solvents; for HT-XRPD Vac.: vacuum-dried solid; for HT-XRPD Vac. (AAC): vacuum-dried solid after AAC 48 h; for HT-XRPD Evap.: evaporated liquid; for HT-XRPD Evap. (AAC): evaporated liquid after AAC 48 h
[4] = Hygroscopicity by Dynamic Vapor Sorption (DVS); format: physicochemical; conditions: based on water vapour uptake at 25° C./80% RH
Method: The hygroscopic behaviour of the salts was evaluated through Dynamic Vapor Sorption (DVS) measurements with an RH profile 40-95-0-40% at 25° C. and a dm/dt of 0.002. The classification of the hygroscopic behaviour is based on the water vapour uptake at 25° C./80% RH in first adsorption cycle of sorption isotherm.

[5] = Intrinsic dissolution rate (rotating disc, μDiss) in water and FaSSIF; format: physicochemical; conditions: for IDR (mg/cm^2/min) Individual: single disc
Method: Rotating disc intrinsic dissolution determinations were performed with a μDiss apparatus (Pion, USA) equipped with 6 independent glass fiber probes each connected to a diode area. Before the start of the experiment the probes were calibrated using the spectrum of a Mercury 362 nm pen-ray lamp. Discs were prepared in a passivated aluminum dye with a mini-IDR press (Heath Scientific, UK).
Six dilutions of benzamil lactate salt were prepared in the dissolution media in the range from 0 to 0.5 mg/mL, and the solutions were stirred with a cross-shaped magnetic stirrer. These dilutions were used for the calibration curve which is used for the calculation of the amount of benzamil in solution. Moreover, the solutions were used to select the wavelength at which the samples were to be measured and to select the proper path length.
The dyes were placed in their Teflon holder magnet stirrer and placed into 20 mL glass vials. Before to the sample measurement, a blank of each media was taken in the respective channel. The experiment started by the gentle addition of the pre-warmed dissolution media. Vials were incubated at 37° C. under continuous stirring at 100 rpm for a maximum of 4 h. UV absorption was measured with the in-line probes at regular intervals. Upon completion of the experiment the pH of the solution was determined. Concentrations of API in solution were calculated with use of the calibration curve and plotted against time. Dissolution rates were calculated over the linear parts of the curves. All dissolution rate experiments were done in triplicate except for TFA1 which were done in duplicate due to the lack of material.

[6] = Polymorphism: solid forms found in salt screen by HT-XRPD; format: physicochemical; conditions: Example 1 salt screen in MeOH, DME, THF
Method: The precipitated solids were analyzed by high throughput X-ray powder diffractometry (HT XRPD). Liquid phases (both solutions and mother liquors) were evaporated at ambient conditions and the residual solids were analyzed by HT XRPD.
The salt screen experiments were carried out in methanol (MeOH), 1,2-dimethoxyethane (DME) and tetrahydrofuran (THF).

[7] = Kinetic and thermodynamic solubility in water at 37° C. (1 h and 18 h, UPLC)
[8] = Physio-chemical stability study, open container 25° C./60% RH and 40° C./75% RH (UPLC, TGMS, HT-XRPD); format: physicochemical; conditions: for UPLC 1 week / UPLC 3 weeks / UPLC 3 days: chemical purity
Method: Open container at 25° C. and 60% RH • 2. Open container at 40° C. and 75% RH

[9] = thermocycling in Acetone/water (95/5% v/v)
[10] = thermocycling in EtOH/water (95/5% v/v)
[11] = thermocycling in IPA/water (95/5% v/v)
[12] = water, 37° C., 30 mg/ml suspension
[13] = open container 25° C. and 60% RH
[14] = open container 40° C. and 75% RH

CC(O)C(=O)O.NC(=NCc1ccccc1)NC(=O)c1nc(Cl)c(N)nc1N [LAC1]
Physically stable? ([1]; AAC, 2 days at 40° C. and 75% RH, solids from thermocycling): Yes
Physically stable after AAC ([1]; Example 1, 40° C./75% RH for 2 days): physically stable and Yes
physical stability upon exposure to AAC ([1]; Example 3 thermocycling solids, 2 days at 40° C. and 75% RH): physically stable
Water solubility [2]: 26 to 51 mg/mL
polymorphs found ([3]; listed as benzamil lactate salt): not to be polymorphic
polymorphs found ([3]; listed as lactate salt): Only one polymorph
HT-XRPD Vac. ([3]; thermocycling in 1,4-Dioxane): LAC1
HT-XRPD Vac. (AAC) ([3]; thermocycling in 1,4-Dioxane): LAC1
HT-XRPD Vac. ([3]; thermocycling in ACN): LAC1
HT-XRPD Vac. (AAC) ([3]; thermocycling in ACN): LAC1
HT-XRPD Vac. ([3]; thermocycling in Acetone): LAC1
HT-XRPD Vac. (AAC) ([3]; thermocycling in Acetone): LAC1
HT-XRPD Vac. [3, 9]: LAC1
HT-XRPD Vac. (AAC) [3, 9]: LAC1
HT-XRPD Vac. ([3]; thermocycling in DME): LAC1
HT-XRPD Vac. (AAC) ([3]; thermocycling in DME): LAC1
HT-XRPD Vac. ([3]; thermocycling in EtOAc): LAC1
HT-XRPD Vac. (AAC) ([3]; thermocycling in EtOAc): LAC1
HT-XRPD Vac. ([3]; thermocycling in EtOH): LAC1
HT-XRPD Vac. (AAC) ([3]; thermocycling in EtOH): LAC1
HT-XRPD Evap. [3, 10]: LAC1
HT-XRPD Evap. (AAC) [3, 10]: LAC1
HT-XRPD Vac. [3, 10]: LAC1
HT-XRPD Vac. (AAC) [3, 10]: LAC1
HT-XRPD Vac. ([3]; thermocycling in IPA): LAC1
HT-XRPD Vac. (AAC) ([3]; thermocycling in IPA): LAC1
HT-XRPD Vac. [3, 11]: LAC1
HT-XRPD Vac. (AAC) [3, 11]: LAC1
HT-XRPD Vac. ([3]; thermocycling in MEK): LAC1
HT-XRPD Vac. (AAC) ([3]; thermocycling in MEK): LAC1
HT-XRPD Evap. ([3]; thermocycling in MeOH): Oil
HT-XRPD Evap. (AAC) ([3]; thermocycling in MeOH): Oil
HT-XRPD Vac. ([3]; thermocycling in TBME): LAC1
HT-XRPD Vac. (AAC) ([3]; thermocycling in TBME): LAC1
HT-XRPD Vac. ([3]; thermocycling in THF): LAC1
HT-XRPD Vac. (AAC) ([3]; thermocycling in THF): LAC1
HT-XRPD Evap. ([3]; thermocycling in Water): LAC1
HT-XRPD Evap. (AAC) ([3]; thermocycling in Water): LAC1
HT-XRPD Vac. ([3]; thermocycling in Water): ly
HT-XRPD Vac. (AAC) ([3]; thermocycling in Water): ly
classification of hygroscopic behaviour [4]: slightly hygroscopic
dissolution rate compared with TFA2 and TFA1 [5]: significantly faster
IDR (mg/cm^2/min) Average ([5]; FaSSIF, 37° C., 100 rpm): 0.39 ± 0.11 mg/cm^2/min
IDR (mg/cm^2/min) Individual ([5]; FaSSIF, 37° C., 100 rpm): 0.285 mg/cm^2/min and 0.510 mg/cm^2/min and 0.389 mg/cm^2/min
IDR (mg/cm^2/min) Average ([5]; Water, 37° C., 100 rpm): 1.87 ± 0.06 mg/cm^2/min
IDR (mg/cm^2/min) Individual ([5]; Water, 37° C., 100 rpm): 1.870 mg/cm^2/min and 1.811 mg/cm^2/min and 1.933 mg/cm^2/min
time until the whole tablet has been dissolved ([5]; water, 37° C.): about 50 min
Intrinsic Dissolution Rate (IDR) ([5]; water, 37° C., 100 rpm, linear part (LAC1 1 to 36 min; TFA 10-100 min)): 1.87±0.06 mg/cm^2/min
Polymorphism [6]: No
Polymorphism ([6]; listed as lactate salt): Only one polymorph
solubility compared with the TFA salts ([7]; overall conclusion of Example 3): significantly higher solubility
XRPD 1 h Amb. ([7]; residual solid after 1 h in water at 37° C., ambient-dried): LAC1
XRPD 1 h Vac. ([7]; residual solid after 1 h in water at 37° C., vacuum-dried): LAC1
XRPD 18 h Amb. ([7]; residual solid after 18 h in water at 37° C., ambient-dried): Am
XRPD 18 h Vac. ([7]; residual solid after 18 h in water at 37° C., vacuum-dried): LAC1
pH after 10 min [7, 12]: 5.9
pH after 1 h [7, 12]: 5.8
pH after 18 h [7, 12]: 5.8
Solubility (mg/mL) 1 h ([7]; water, 37° C., 1 h (kinetic), UPLC): 24.3 mg/mL
Solubility (mg/mL) 18 h ([7]; water, 37° C., 18 h (thermodynamic), UPLC): 23.6 mg/mL
UPLC t0 ([8]; chemical purity at start of stability study): 99.4%
UPLC 1 week [8, 13]: 99.4%
UPLC 3 weeks [8, 13]: 99.4%
UPLC 3 days [8, 13]: 99.4%
UPLC 1 week [8, 14]: 99.2%
UPLC 3 weeks [8, 14]: 99.4%
UPLC 3 days [8, 14]: 99.4%
physical and chemical stability ([8]; incubation for 3 weeks at 25° C./60% RH and 40° C./75% RH): physically and chemically stable
TGMS 1 week [8, 13]: <0.1% water
XRPD 1 week [8, 13]: LAC1
TGMS 3 weeks [8, 13]: <0.1% water
XRPD 3 weeks [8, 13]: LAC1
TGMS 3 days [8, 13]: 1.2% water
XRPD 3 days [8, 13]: LAC1
TGMS 1 week [8, 14]: 0.2% water
XRPD 1 week [8, 14]: LAC1
TGMS 3 weeks [8, 14]: <0.1% water
XRPD 3 weeks [8, 14]: LAC1
TGMS 3 days [8, 14]: 1.5% water
XRPD 3 days [8, 14]: LAC1
TGMS t0 ([8]; start of stability study): 0.4% water
XRPD t0 ([8]; start of stability study): LAC1
